In patent US20180265804A1 (priority 2015, published 2018):

What was measured:
Escherichia coli [1] = type: cell-based
Salmonella Typhimurium [2] = type: cell-based
Clostridium perfringens [3] = type: cell-based; conditions: strain of avian origin, 10^6 cfu/ml, 37° C. for 24 hours, anaerobiosis
Escherichia coli [4] = type: cell-based; remark: listed apart in the source
Salmonella Typhimurium [5] = type: cell-based; remark: listed apart in the source
Clostridium perfringens [6] = type: cell-based; conditions: strain of avian origin
Solubility in water = type: physicochemical; conditions: for solubility: water, at 25° C.
Salmonella Enteritidis [7] = type: cell-based
Salmonella Enteritidis [8] = type: cell-based; remark: listed apart in the source

Row | SMILES | MIC (Escherichia coli [1]) | MIC (Salmonella Typhimurium [2]) | MIC (Clostridium perfringens [3]) | MBC (Escherichia coli [4]) | MBC (Salmonella Typhimurium [5]) | MBC (Clostridium perfringens [6]) | Solubility in water (Solubility in water; result in words) | MIC (Salmonella Enteritidis [7]) | MBC (Salmonella Enteritidis [8]) | solubility (Solubility in water) | melting point
1 | Cc1ccc(C(C)C)cc1O [Carvacrol, reference compound] | ≤0.093% | 0.375% | ≤0.093% | ≤0.093% | 0.375% | ≤0.093% | INSOLUBLE |  |  |  | 
2 | CCCCCCCCCCCC(=O)Oc1cc(C(C)C)ccc1C [IB536, Carvacrol Laurate] | >10% | >10% | >10% | >10% | >10% | >10% |  |  |  |  | 
3 | Cc1cc(S(=O)(=O)O)c(C(C)C)cc1O [IB540, Carvacrol Sulfonic Acid] | 0.75% | 0.75% | 0.375% | 0.75% | 0.75% | 0.75% |  | 0.312% | 0.312% |  | 
4 | Cc1cc(S(=O)(=O)[O-])c(C(C)C)cc1O.[K+] [IB546, Carvacrol Sulfonate Potassium Salt] | 5% | 1.25% | 0.375% | 5% | 1.25% | 0.75% |  | 1.25% | 1.25% | ~250 mg/mL | > 270 °C (dec.)
5 | CCCCCCCCCCCC(=O)Oc1cc(C)ccc1C(C)C [IB570, Thymol Laurate] | >10% | >10% | >10% | >10% | >10% | >10% |  |  |  |  | 
6 | Cc1cc(O)c(C(C)C)cc1S(=O)(=O)O [IB574, Thymol Sulfonic Acid] | 0.75% | 0.375% | 0.375% | 0.75% | 0.375% | 0.375% |  | 0.625% | 0.625% |  | 
7 | Cc1cc(O)c(C(C)C)cc1S(=O)(=O)[O-].[K+] [IB575, Thymol Sulfonate Potassium Salt] | 2.5% | 5% | 1.25% | 2.5% | 5% | 2.5% |  |  |  | ~190 mg/mL | 
8 | CCCCCCCCCCCC(=O)OC1CC(C)CCC1C(C)C (stereo not shown) [IB579, Menthol Laurate] | >10% | >10% | >10% | >10% | >10% | >10% |  |  |  |  | 
9 | Cc1ccc(C(C)C)c(OC(=O)CCC(=O)Oc2cc(C)ccc2C(C)C)c1 [Succinate] | ≤0.093% | ≤0.093% | ≤0.093% | ≤0.093% | ≤0.093% | ≤0.093% |  |  |  |  | 
10 | Cc1ccc(C(C)C)c(O)c1 [Thymol, reference compound] | ≤0.093% | ≤0.093% | ≤0.093% | ≤0.093% | ≤0.093% | ≤0.093% |  |  |  |  | 
